This is an account of results in US12662465B2, “EGFR inhibitors” (Blueprint Medicines Corporation, priority 2021, dated 2026).

pIC50: −log10 of the molar value. Some results are limits rather than exact numbers.

Assay [1] concerns EGFR M+ NSCLC patients. The settings on record: first line (1L), NSCLC harboring del19 and L858R mutations; cited from earlier work.
The target in assay [2] is T1, EGFR enzyme (Homo sapiens, UniProt P00533).
T1 construct: From knowledge only, the SignalChem E10-1xx 'G' products are GST-tagged cytoplasmic-domain constructs
T1 sequence (P00533 whole entry L858R, form open): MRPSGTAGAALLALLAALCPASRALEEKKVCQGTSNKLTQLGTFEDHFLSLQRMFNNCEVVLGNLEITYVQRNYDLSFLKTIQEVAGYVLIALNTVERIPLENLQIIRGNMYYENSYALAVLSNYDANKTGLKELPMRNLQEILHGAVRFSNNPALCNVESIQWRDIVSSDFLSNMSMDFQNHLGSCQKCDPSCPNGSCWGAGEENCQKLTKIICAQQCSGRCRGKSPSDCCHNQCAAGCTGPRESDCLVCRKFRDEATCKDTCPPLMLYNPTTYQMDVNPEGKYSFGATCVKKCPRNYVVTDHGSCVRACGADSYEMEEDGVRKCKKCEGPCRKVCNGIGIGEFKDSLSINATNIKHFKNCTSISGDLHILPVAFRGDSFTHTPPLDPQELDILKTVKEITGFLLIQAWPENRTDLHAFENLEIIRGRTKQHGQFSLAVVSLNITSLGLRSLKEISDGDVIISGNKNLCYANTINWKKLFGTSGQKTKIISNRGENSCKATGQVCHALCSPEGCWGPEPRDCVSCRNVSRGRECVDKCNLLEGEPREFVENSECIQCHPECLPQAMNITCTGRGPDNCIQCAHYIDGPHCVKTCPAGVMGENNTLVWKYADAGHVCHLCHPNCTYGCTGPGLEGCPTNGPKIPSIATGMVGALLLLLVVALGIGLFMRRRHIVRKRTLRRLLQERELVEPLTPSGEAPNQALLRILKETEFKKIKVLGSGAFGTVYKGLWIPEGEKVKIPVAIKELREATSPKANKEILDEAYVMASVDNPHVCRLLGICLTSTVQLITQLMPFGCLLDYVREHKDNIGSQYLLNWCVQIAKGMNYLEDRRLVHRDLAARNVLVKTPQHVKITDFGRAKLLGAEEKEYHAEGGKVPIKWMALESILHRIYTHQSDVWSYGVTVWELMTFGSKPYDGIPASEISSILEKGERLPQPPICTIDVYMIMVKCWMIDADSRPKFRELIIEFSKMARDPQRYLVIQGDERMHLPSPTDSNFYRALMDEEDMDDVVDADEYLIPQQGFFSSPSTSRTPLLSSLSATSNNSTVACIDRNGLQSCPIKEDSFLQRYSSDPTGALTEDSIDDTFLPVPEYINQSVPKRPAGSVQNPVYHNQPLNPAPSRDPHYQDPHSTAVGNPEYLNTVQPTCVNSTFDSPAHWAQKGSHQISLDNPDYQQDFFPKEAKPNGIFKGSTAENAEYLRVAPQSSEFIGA
In words: Biochemical EGFR inhibition assays (Biological Example 1), enzyme form not specified. The settings on record: Biological Example/Assay 1; read-out: inhibitory activity.

In assay [3] the target is T2, EGFR L858R (Homo sapiens, UniProt P00533, L858R).
T2 construct: purchased SignalChem E10-122BG
T2 sequence (P00533 25-1210 L858R): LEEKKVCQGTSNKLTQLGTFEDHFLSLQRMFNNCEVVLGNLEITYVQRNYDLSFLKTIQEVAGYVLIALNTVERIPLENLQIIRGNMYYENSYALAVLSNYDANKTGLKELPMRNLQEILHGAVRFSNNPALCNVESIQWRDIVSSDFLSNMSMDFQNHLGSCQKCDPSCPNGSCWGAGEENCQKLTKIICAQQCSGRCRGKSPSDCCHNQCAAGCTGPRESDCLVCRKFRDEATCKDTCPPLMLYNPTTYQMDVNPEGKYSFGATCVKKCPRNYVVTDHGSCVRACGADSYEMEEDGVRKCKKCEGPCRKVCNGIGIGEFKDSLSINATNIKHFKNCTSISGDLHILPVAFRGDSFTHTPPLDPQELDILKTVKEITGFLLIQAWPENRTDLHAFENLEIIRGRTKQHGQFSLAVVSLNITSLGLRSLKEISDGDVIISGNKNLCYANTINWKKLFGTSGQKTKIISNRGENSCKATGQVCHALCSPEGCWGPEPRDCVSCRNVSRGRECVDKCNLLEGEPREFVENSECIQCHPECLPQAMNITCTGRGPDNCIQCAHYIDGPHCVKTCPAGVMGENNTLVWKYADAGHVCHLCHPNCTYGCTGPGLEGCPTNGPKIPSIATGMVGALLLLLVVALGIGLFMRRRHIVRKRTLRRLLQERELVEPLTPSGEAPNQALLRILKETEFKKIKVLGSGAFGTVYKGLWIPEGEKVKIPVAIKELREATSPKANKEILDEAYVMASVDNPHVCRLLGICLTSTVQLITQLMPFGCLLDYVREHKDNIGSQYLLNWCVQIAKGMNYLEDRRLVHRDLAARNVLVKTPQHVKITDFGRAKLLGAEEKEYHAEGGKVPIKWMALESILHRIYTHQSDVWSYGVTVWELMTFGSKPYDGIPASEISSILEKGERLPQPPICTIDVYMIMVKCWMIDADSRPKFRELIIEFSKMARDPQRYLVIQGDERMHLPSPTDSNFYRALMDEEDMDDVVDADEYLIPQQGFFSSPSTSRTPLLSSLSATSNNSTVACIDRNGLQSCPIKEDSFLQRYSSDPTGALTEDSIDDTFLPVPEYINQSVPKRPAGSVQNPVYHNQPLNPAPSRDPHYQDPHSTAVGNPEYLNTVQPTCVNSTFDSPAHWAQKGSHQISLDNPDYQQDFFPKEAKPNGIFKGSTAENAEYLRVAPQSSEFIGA
In words: Biochemical EGFR inhibition assay (Caliper mobility shift), EGFR L858R. As to conditions: read-out: Enz EGFR_L858R IC50.

In assay [4] the target is intracellular phosphorylation of EGFR (Tyr1068) in PC-9 cells (Ex19Del) (Homo sapiens, UniProt P00533, DEL746-750). In words: PC-9 pEGFR AlphaLISA assay. The class given is cell-based. The settings on record: 4 hours compound incubation, read-out: Ext pEGFR_PC-9 Ex19Del IC50. On the technique in general: Bead proximity is the source of the signal in Alpha formats.
Chain of intracellular phosphorylation of EGFR (Tyr1068) in PC-9 cells (Ex19Del) (P00533 with tags, fused parts or gaps DEL746-750): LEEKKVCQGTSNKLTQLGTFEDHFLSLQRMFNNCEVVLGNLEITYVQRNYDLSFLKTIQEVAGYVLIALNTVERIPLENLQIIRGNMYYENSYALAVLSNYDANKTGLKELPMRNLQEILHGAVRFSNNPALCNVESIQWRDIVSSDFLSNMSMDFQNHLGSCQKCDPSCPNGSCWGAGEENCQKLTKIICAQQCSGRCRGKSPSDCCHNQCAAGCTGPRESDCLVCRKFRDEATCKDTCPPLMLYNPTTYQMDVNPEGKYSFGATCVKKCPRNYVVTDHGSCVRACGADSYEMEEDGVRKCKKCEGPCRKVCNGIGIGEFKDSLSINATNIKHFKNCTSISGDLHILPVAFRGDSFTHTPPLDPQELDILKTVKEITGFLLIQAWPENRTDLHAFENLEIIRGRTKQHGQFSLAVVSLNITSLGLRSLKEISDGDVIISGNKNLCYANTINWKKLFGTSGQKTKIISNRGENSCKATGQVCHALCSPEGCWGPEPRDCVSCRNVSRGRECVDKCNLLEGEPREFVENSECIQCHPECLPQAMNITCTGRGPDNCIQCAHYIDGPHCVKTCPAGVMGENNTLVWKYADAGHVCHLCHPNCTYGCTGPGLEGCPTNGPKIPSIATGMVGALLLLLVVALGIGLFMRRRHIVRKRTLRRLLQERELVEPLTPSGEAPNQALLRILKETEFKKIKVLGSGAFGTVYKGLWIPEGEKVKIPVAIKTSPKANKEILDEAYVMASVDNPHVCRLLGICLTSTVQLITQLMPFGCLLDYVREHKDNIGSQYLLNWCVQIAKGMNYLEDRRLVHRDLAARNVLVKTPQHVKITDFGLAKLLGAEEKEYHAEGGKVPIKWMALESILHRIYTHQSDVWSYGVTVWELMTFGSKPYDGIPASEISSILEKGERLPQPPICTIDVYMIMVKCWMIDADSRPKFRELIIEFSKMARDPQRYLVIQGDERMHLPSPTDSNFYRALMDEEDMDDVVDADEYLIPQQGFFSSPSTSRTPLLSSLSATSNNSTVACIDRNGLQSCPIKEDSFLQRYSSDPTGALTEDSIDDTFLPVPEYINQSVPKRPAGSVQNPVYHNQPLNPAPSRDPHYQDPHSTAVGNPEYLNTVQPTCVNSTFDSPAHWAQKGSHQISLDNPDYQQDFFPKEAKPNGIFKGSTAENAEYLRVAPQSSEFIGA
Assay [5] deals with T3, EGFR (d746-750) (Homo sapiens, UniProt P00533, DEL746-750).
T3 construct: purchased SignalChem E10-122JG
T3 sequence (P00533 with tags, fused parts or gaps DEL746-750 limits assumed): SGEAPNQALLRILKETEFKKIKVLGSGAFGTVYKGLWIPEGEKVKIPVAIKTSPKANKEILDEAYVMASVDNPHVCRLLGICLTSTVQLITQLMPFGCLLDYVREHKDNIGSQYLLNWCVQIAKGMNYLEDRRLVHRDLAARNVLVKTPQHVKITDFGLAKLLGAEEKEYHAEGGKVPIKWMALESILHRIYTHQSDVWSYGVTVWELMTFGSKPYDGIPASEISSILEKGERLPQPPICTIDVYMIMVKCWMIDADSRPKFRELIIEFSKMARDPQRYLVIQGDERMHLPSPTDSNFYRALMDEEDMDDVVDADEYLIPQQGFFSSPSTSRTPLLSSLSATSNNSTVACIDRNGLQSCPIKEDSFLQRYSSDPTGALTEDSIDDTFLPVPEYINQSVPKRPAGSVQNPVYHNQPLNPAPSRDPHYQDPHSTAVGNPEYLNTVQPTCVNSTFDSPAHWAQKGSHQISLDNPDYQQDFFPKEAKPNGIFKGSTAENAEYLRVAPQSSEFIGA
In words: Biochemical EGFR inhibition assay (Caliper mobility shift), EGFR (d746-750). As to conditions: read-out: Enz EGFR_Exon19-del746-750 IC50.

As for `C=CC(=O)Nc1cc(Nc2nccc(-c3cn(C)c4ccccc34)n2)c(OC)cc1N(C)CCN(C)C` [osimertinib], the “progression-free survival (PFS)” value in assay [1] is listed as 18.9 mo.

Consider `[2H]c1c(-c2cc(O[C@H](C)CN(C)C)c3c(Nc4ccc5ncccc5c4OC([2H])([2H])[2H])ncnc3c2)cnn1C`, for which the pIC50 in assay [2] was less than 5.00.

As for `CCNC[C@@H](C)Oc1cc(-c2cnn(C)c2)cc2ncnc(Nc3ccc4ncccc4c3F)c12` [Example 102, (R)-5-((1-(ethylamino)propan-2-yl)oxy)-N-(5-fluoroquinolin-6-yl)-7-(1-methyl-1H-pyrazol-4-yl)quinazolin-4-amine], the pIC50 in assay [3] is 7.30 to 8.00; in assay [4], less than 7.30; in assay [5], 7.30 to 8.00.

Take `C[C@H](CN(C)C)Oc1cc(N2CCOC(C(F)F)C2)cc2ncnc(Nc3ccc4ncccc4c3F)c12` (mixture of isomers) [Example 98, 7—((S)-2-(difluoromethyl)morpholino)-5-(((R)-1-(dimethylamino)propan-2-yl)oxy)-N-(5-fluoroquinolin-6-yl) and 7-((R)-2-(difluoromethyl)morpholino)-5-(((R)-1-(dimethylamino)propan-2-yl)oxy)-N-(5-fluoroquinolin-6-yl)quinazolin-4-amine]: the results for the pIC50 in assay [3], in assay [4] and in assay [5] were 7.30 to 8.00, no less than 8.00 and greater than 8.00, respectively.

`C[C@H](CN(C)C)Oc1cc(-c2cnn(C)c2)cc2ncnc(Nc3ccc4nc(O)ccc4c3F)c12` [Example 130, (R)-6-((5-((1-(dimethylamino)propan-2-yl)oxy)-7-(1-methyl-1H-pyrazol-4-yl)quinazolin-4-yl)amino)-5-fluoroquinolin-2-ol]: the pIC50 was less than 7.30 in assay [3], less than 7.30 in assay [4] and 7.30 to 8.00 in assay [5].
